Test results: US8501995B2, “β-phenylethylidenehydrazine derivatives” (The Governors of the University of Alberta, priority 2009, dated 2013)
Where two headings read alike, the source gives them in different places.

Assays:
GABA-T [1] = molecular target: T1, GABA-T (Rattus norvegicus, UniProt P50554); experiment: GABA-T activity ex vivo in brain homogenates of drug-treated rats (radiochemical); details: i.p., equimolar doses (PEH 30 mg/kg, 7p 47 mg/kg, 8p 38.5 mg/kg)
T1 construct: Brain homogenate from control rats was pre-incubated with the drug of interest; from tissue; host or cells: rat (male Sprague-Dawley) whole brain homogenate
T1 sequence (P50554 28-500): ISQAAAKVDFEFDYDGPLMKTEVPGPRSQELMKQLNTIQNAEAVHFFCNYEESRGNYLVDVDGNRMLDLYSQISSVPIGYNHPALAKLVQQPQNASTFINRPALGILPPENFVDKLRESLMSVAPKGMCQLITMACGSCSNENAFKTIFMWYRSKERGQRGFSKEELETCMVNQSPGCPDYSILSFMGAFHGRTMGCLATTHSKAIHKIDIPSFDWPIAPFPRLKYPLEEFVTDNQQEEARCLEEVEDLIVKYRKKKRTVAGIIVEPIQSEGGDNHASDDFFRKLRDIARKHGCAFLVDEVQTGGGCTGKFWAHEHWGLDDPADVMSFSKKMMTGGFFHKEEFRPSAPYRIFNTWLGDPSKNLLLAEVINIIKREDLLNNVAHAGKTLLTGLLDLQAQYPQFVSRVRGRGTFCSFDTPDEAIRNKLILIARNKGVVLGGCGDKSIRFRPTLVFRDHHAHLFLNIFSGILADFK
Experimental: (§1) Male Sprague-Dawley rats (approximately 300 g) were pair-housed in polycarbonate cages with free access to food (Purina Rat Chow) and water, and were maintained on a 12-hour light-dark cycle (lights on at 0800). All animal procedures were approved by the University of Alberta Biosciences Animal Policy and Welfare Committee, and were carried out in accordance with the guidelines of the Canadian Council on Animal Care.
(§2) In the ex vivo studies, animals were injected intraperitoneally with equimolar amounts of PEH (30 mg/kg), 7p (47 mg/kg) or 8p (38.5 mg/kg) or vehicle (corn oil) and were killed by decapitation 3, 6 or 12 hours following drug administration. Brains were rapidly removed and flash-frozen in 2-methylbutane on solid carbon dioxide, and were stored at −80° C. Subsequently, partially-thawed brains were homogenized in 5 volumes of ice-cold distilled water, and stored in aliquots at -80° C. for use in subsequent analyses (GABA-T, MAO-A, MAO-B, and brain levels of amino acids) after addition to the appropriate buffer medium.
(§3) A modification of the colorimetric method of Sethi^49 was used in the initial in vitro screen. Brain homogenate from control rats was pre-incubated with the drug of interest and an incubation buffer before conducting the assay. In the ex vivo study of homogenates from brains of rats treated with the analogs, GABA-T activity was measured using the radiochemical procedure of Sterri and Fonnum.^20 Briefly, homogenates were incubated with radiolabelled GABA in a buffer containing pyridoxal phosphate and the resultant products were isolated using a liquid anion exchanger (tri-n-octylamine). Radioactivity (dpm) was counted using a Beckman LS 7500 liquid scintillation spectrometer.

MAO-A [2] = molecular target: T2, MAO-A (Rattus norvegicus, UniProt P21396); experiment: MAO-A inhibition in vitro in control rat brain homogenate (14C-5-hydroxytryptamine substrate); format: biochemical
T2 construct: from tissue; host or cells: rat (male Sprague-Dawley) whole brain homogenate
T2 sequence (P21396 1-526): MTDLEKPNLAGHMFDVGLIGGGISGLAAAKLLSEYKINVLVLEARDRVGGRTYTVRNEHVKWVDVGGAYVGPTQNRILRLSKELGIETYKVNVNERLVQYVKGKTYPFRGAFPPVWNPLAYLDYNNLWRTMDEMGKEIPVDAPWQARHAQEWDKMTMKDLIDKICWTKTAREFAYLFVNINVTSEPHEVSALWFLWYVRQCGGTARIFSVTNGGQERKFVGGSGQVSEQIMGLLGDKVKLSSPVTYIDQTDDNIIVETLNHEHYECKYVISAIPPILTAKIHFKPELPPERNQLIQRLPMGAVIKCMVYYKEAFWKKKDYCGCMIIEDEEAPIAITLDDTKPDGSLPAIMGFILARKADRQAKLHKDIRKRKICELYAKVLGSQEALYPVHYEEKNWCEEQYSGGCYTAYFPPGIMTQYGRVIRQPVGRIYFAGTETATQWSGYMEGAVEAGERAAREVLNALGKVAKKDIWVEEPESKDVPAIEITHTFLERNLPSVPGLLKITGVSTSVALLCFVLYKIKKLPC
Experimental: (§4) Monoamine oxidase activity was determined using a modified protocol described by Lyles and Callingham.^51 In the in vitro studies, the drugs were pre-incubated with control rat brain homogenate prior to conducting the assay. Briefly, tissue homogenate was diluted in KH2PO4 (0.2M), and an aliquot (50 μl) was incubated with the appropriate radiolabelled substrates (^14C-labelled 5-hydroxytryptamine and β-phenylethylamine were used as substrates for MAO-A and -B respectively). The reaction products were extracted by a mixture of ethyl acetate and toluene (1:1 v/v), and a portion of the top layer was added to a vial containing scintillation fluid for radioactivity measurement. Radioactivity (dpm) was counted using a Beckman LS 7500 liquid scintillation spectrometer.

MAO-B [3] = molecular target: T3, MAO-B (Rattus norvegicus, UniProt P19643); experiment: MAO-B inhibition in vitro in control rat brain homogenate (14C-β-phenylethylamine substrate); format: biochemical
T3 construct: the drugs were pre-incubated with control rat brain homogenate prior to conducting the assay; from tissue; host or cells: rat (male Sprague-Dawley) whole brain homogenate
T3 sequence (P19643 1-520): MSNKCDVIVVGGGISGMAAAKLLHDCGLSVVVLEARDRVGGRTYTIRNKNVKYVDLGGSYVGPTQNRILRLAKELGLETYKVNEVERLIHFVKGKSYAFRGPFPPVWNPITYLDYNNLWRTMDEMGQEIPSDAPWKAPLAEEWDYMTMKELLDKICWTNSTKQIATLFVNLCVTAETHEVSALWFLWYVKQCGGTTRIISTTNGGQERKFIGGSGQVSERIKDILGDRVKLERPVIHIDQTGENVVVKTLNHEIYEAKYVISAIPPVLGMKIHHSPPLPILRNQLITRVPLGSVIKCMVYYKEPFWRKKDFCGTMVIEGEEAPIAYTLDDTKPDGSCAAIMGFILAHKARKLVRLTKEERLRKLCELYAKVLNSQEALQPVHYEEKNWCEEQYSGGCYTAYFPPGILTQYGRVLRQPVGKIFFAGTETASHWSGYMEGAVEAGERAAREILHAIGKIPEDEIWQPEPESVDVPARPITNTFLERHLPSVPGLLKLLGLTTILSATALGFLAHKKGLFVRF
Experimental: as §4

MAO-A [4] = molecular target: T2, MAO-A; experiment: MAO-A activity ex vivo in brain tissue of drug-treated rats; details: for MAO-A activity ex vivo / MAO-A inhibition ex vivo: 8p 38.5 mg/kg i.p.; for effect on MAO-A activity ex vivo: time points tested 3, 6, 12 hours, i.p., equimolar doses (PEH 30 mg/kg, 7p 47 mg/kg, 8p 38.5 mg/kg)
Experimental: as §1, §2, §4

MAO-B [5] = molecular target: T3, MAO-B; experiment: MAO-B activity ex vivo in brain tissue of drug-treated rats; details: i.p.; for MAO-B activity ex vivo: 7p 47 mg/kg, 8p 38.5 mg/kg; for effect on MAO-B activity ex vivo: time points tested 3, 6, 12 hours, equimolar doses (PEH 30 mg/kg, 7p 47 mg/kg, 8p 38.5 mg/kg)
Experimental: as §1, §2, §4

[6] = system: brain levels of amino acids (GABA, glutamate, alanine and glycine); format: in vivo; details: rat whole brain; for effect on brain GABA levels / effect on brain alanine levels / effect on brain glutamate levels / effect on brain glycine levels: 3, 6, 12 hours, i.p., equimolar doses (PEH 30 mg/kg, 7p 47 mg/kg, 8p 38.5 mg/kg)
Experimental: as §1, §2
Amino acid levels (GABA, glutamate, alanine and glycine) were determined using a modified procedure previously described by Grant and colleagues^52 for the quantification of amino acids using HPLC combined with fluorescence detection, following derivatization with fluoraldehyde reagent [o-phthaldialdehyde (OPA)] and isobutyryl-L-cysteine (IBLC). Briefly, a portion of the homogenate (100 μl) was added to ice-cold methanol (400 μl), re-homogenized and centrifuged (13,000 g, 4° C.). The supernatants were further diluted by a factor of 2 in ice-cold water, and transferred to HPLC vials. A portion of the supernatant (5 μl) was reacted with OPA/IBLC (5 μl) in the injection loop of a Waters Alliance 2690XE system for 1.5 minutes before injection onto the analytical column (Symmetry C18 5 μm (4.6×150 mm)), connected to a Symmetry C18 guard column, held at 30° C. A Waters 474 fluorescence detector was set to an excitation wavelength of 344 nm and an emission wavelength of 443 nm. Data were collected and analyzed using the Empower Pro software package (Waters).

GABA-T [7] = molecular target: T1, GABA-T; experiment: GABA-T inhibition in vitro, colorimetric screen in control rat brain homogenate; format: biochemical
Experimental: as §3

[8] = 3 hours following drug administration
[9] = 6 hours following drug administration
[10] = 6 hours following drug injection
[11] = 12 hours following drug injection
[12] = rat brain homogenate, mean±SEM, n=4
[13] = 3 hours following injection, PEH 30 mg/kg i.p.

SMILES	GABA-T activity ex vivo (GABA-T [1]; 3 hours post-injection)	GABA-T activity ex vivo (GABA-T [1]; 6 hours post-injection)	GABA-T activity ex vivo (GABA-T [1]; 12 hours post-injection)	inhibition of MAO-A in vitro (MAO-A [2]; concentration of 10 μM)	inhibition of MAO-B in vitro (MAO-B [3]; concentration of 10 μM)	effect on MAO-A activity ex vivo (MAO-A [4])	MAO-B activity ex vivo (MAO-B [5]; [10])	MAO-B activity ex vivo (MAO-B [5]; [11])	effect on MAO-B activity ex vivo (MAO-B [5])	effect on brain GABA levels [6]	effect on brain alanine levels [6]	effect on brain glutamate levels [6]	effect on brain glycine levels [6]	inhibition of MAO-A in vitro (MAO-A [2]; [12])	inhibition of MAO-B in vitro (MAO-B [3]; [12])	further results
C#CCNN=CCc1ccccc1 [8p, (E)- and (Z)-N-(2-Propynyl)-2-(phenyl)ethylidene]hydrazines]	76 % of control	77 % of control	not significantly different from control values	neither 7p nor 8p caused any inhibition of MAO-A or -B	neither 7p nor 8p caused any inhibition of MAO-A or -B	weak, transient effect on MAO-A	24 % of control	29 % of control	significantly reducing MAO-B activity at all time points tested	did not significantly alter the levels of GABA, alanine or glutamate at any time point tested	did not significantly alter the levels of GABA, alanine or glutamate at any time point tested	did not significantly alter the levels of GABA, alanine or glutamate at any time point tested	significantly increased glycine at 3 and 6 hours post-injection			MAO-A activity ex vivo (MAO-A [4]; [8]): 78 % of control; MAO-A inhibition ex vivo (MAO-A [4]; [8]): 22%; MAO-A activity ex vivo (MAO-A [4]; [9]): 70 % of control; MAO-A inhibition ex vivo (MAO-A [4]; [9]): 30%; brain glycine level ([6]; 6 hours post-injection, 8p 38.5 mg/kg i.p.): 216 % of control
C#CCN(CC#C)/N=C/Cc1ccccc1 [7p]	86 % of control	86 % of control	not significantly different from control values	neither 7p nor 8p caused any inhibition of MAO-A or -B	neither 7p nor 8p caused any inhibition of MAO-A or -B	did not significantly alter MAO-A activity at any time point tested	58 % of control	25 % of control	significantly reducing MAO-B activity at all time points tested	did not significantly alter the levels of GABA, alanine or glutamate at any time point tested	did not significantly alter the levels of GABA, alanine or glutamate at any time point tested	did not significantly alter the levels of GABA, alanine or glutamate at any time point tested	increased glycine at 3, 6 and 12 hours post-injection			brain glycine level ([6]; 12 hours post-injection, 7p 47 mg/kg i.p.): 248 % of control
NN=CCc1ccccc1 [PEH, β-Phenylethylidenehydrazine]	66 % of control	66 % of control	70 % of control			did not alter the activity of either MAO-A or -B			did not alter the activity of either MAO-A or -B	increased brain GABA and alanine levels	increased brain GABA and alanine levels	did not significantly alter brain glutamate or glycine levels	did not significantly alter brain glutamate or glycine levels	26.7±3.1%	14.9±6.6%	inhibition at 10 µM (GABA-T [7]): ~50%; brain GABA level [6, 13]: 418 % of control; brain alanine level [6, 13]: 489 % of control
NNCCc1ccccc1 [PLZ, phenelzine, reference compound]														greater than 95%	greater than 95%	
